According to PubChem BioAssay (NCI):
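Method: 48-hour compound exposure of cells in 96-well plates, five concentrations, linear interpolation of endpoints. The concentration for 50% growth inhibition is given as GI50. TGI: concentration producing complete growth inhibition.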

Key:
Assay in all cases: NCI tumour cell line growth inhibition, 48 h
MOLT-4 leukemia = test system: MOLT-4 leukemia
M14 melanoma = test system: M14 melanoma
A549 NSCLC = test system: A549 NSCLC
TK-10 renal = test system: TK-10 renal
BT-549 breast = test system: BT-549 breast
OVCAR-3 ovarian = test system: OVCAR-3 ovarian
HOP-92 NSCLC = test system: HOP-92 NSCLC
IGROV1 ovarian = test system: IGROV1 ovarian
SF-268 CNS = test system: SF-268 CNS
PC-3 prostate = test system: PC-3 prostate

SMILES | GI50 (MOLT-4 leukemia) [µM] | TGI (MOLT-4 leukemia) [µM] | GI50 (M14 melanoma) [µM] | TGI (M14 melanoma) [µM] | GI50 (A549 NSCLC) [µM] | TGI (A549 NSCLC) [µM] | GI50 (TK-10 renal) [µM] | TGI (TK-10 renal) [µM] | GI50 (BT-549 breast) [µM] | TGI (BT-549 breast) [µM] | GI50 (OVCAR-3 ovarian) [µM] | TGI (OVCAR-3 ovarian) [µM] | GI50 (HOP-92 NSCLC) [µM] | TGI (HOP-92 NSCLC) [µM] | GI50 (IGROV1 ovarian) [µM] | TGI (IGROV1 ovarian) [µM] | TGI (SF-268 CNS) [µM] | GI50 (PC-3 prostate) [µM] | TGI (PC-3 prostate) [µM] | GI50 (SF-268 CNS) [µM]
C[C@@H]1CCC2[C@@H](C)[C@@H](OCC(CO[C@H]3OC4O[C@@]5(C)CC[C@H]6[C@H](C)CCC([C@H]3C)[C@@]46OO5)OC(=O)CCC(=O)O)OC3O[C@@]4(C)CC[C@@H]1[C@]32OO4 (stereo partly specified) | 0.537 | > 48.7 | 4.05 | 26.9 | 0.971 | 32.6 | < 0.046 | 29.5 | 3.74 | 29.4 | 0.02 | 15.8 | 0.097 | 3.26 | 12.6 | > 69 | 20.1 | < 0.01 | 14.7 | 
C=C1NC(=O)C(C(C)CC)NC(=O)C2CSCC(NC(=O)CCC(=O)O)C(=O)NC(Cc3ccccc3)C(=O)NC(C)C(=O)NC(CC(C)CC)C(=O)NC(C(=O)NC(Cc3ccccc3)C(=O)N3CCCC3C(=O)N2)C(C)OC(=O)C(CO)NC(=O)C(C(O)COC)N(C)C(=O)C(C(C)C)NC(=O)C(CC(C)CC)NC1=O (stereo unspecified) | 0.0552 | > 6 | 0.00878 | 0.0391 | 0.0268 | > 6 | 0.95 | > 6 | 0.0728 | > 6 | 0.0118 |  | 0.0668 | > 4.93 | 0.112 | > 6 | > 6 | 0.0265 | > 6 | 0.0342
Cc1cc(/C=C/c2ccc3cc(N(C)C)ccc3[n+]2C)c(C)n1-c1ccccc1 | 0.193 | 2.52 | 0.3 | 1.25 | 0.182 | 1.02 | 0.301 | 2.34 | 0.159 | 1.09 | 0.197 | 1.42 | 0.193 | 1.33 | 0.3 | 3.92 | 2.87 | 0.13 | 0.765 | 0.215
COc1ncnc(NS(=O)(=O)c2ccc(N=C3C(=O)N(CN4CCN(c5c(F)cc6c(=O)c(C(=O)O)cn(C7CC7)c6c5OC)CC4C)c4ccc(Cl)cc43)cc2)c1OC (stereo unspecified) | > 50 | > 50 | 21.1 | > 50 | 21.2 | > 50 |  |  | 20.6 | > 50 | 13.1 | > 50 | 10.6 | > 50 | 20 | > 50 | > 50 | 9.39 | > 50 | 10.7
CCCCCCCCC/C=C1\CCC(CN2CCOCC2)C1=O (stereo unspecified) |  | 5.84 |  | 9.41 |  | 34.7 |  | 5.56 |  | 3.8 |  | 24.9 |  | 7.4 |  | 14.8 | 18.2 |  | 4.25 | 
N=Nc1c(OC(=O)Nc2cccc(Cl)c2)[nH]c2ccccc12 |  | 25.8 |  | 18.6 |  | 18.7 |  | 24.6 |  | 20.1 |  | 6.6 |  | 18.1 |  | 21.4 | 27.9 |  | 14.6 | 
CCN1CCN(c2nc(C)cc(N(CCNc3ccnc4cc(Cl)ccc34)Cc3ccc4c(c3)OCO4)n2)CC1 | 2.1 | 6.2 | 1.84 | 3.44 | 2.4 | 8.19 | 1.66 | 3.16 | 1.74 | 3.73 | 2.28 | 7.02 | 1.17 | 2.67 | 2.36 | 7.78 | 5.81 | 3.22 | 13.4 | 2.09
CCN(CC)c1ccc(-c2cc(-c3cc(OC)c(OC)c(OC)c3)nc(N3CCOCC3)c2C#N)cc1 | 2.45 | > 100 | 0.292 | 1.33 | 1.37 | > 100 | 15.3 | > 100 | 0.48 | > 100 | 3.19 | 20.9 | 0.796 | 4.42 | 2.83 | > 100 | > 100 | 1.27 | > 100 | 5.96
O=C1OC(O)[C@@H]2[C@H]1[C@H]1CC[C@@H]2O1 (stereo partly specified) | > 100 | > 100 | 84.5 | > 100 | 60.8 | > 100 | 27.3 | 66.2 | > 100 | > 100 | 32.8 | 69.2 | 20.3 | > 69.9 | > 100 | > 100 | > 100 | > 100 | > 100 | > 100
Nc1ncnc2n[nH]c(Nc3ccc(F)cc3)c12 | 31.7 | > 100 | 13.4 | > 100 | 39.2 | > 100 | 25.4 | > 100 | 56.7 | > 100 | 30.8 | > 100 | 12 | 87.4 | 4.73 | 32.1 | > 100 | 20.8 | > 100 | 28.7
Fc1cc2[nH]ncc2c2c3c(c(-c4cn[nH]c4)nc12)CCCC3 | 1.72 | 6.15 | 0.541 | 4.54 | 0.844 | > 100 | 1.21 | > 27.8 | 1.38 | 4.94 | 1.53 | 6.91 | 1.48 | 5.66 | 0.521 | 9.56 | 4.01 | 1.77 | 33.7 | 1.31
CC(C)(C)OC(=O)N[C@H]1CC2(C=C(Cl)C(=O)C(Cl)=C2)OC1=O |  | 15.7 |  | 33.7 |  | > 100 |  | 33.8 |  | 29.9 |  | 28.1 |  | 31.7 |  | 36 | 32.3 |  | 32.1 | 
CN(C(=O)c1ccc(C(F)(F)F)cc1)c1ccc(Oc2ccc3c(c2)cc(C(=O)N2CCN(Cc4ccc(OC(F)F)cc4)CC2)n3C)nc1 | 0.881 | > 100 | > 100 | > 100 | 3.23 | > 100 | 15.7 | > 96.1 | 6.71 | > 100 | 11.3 | > 100 | 3.02 | > 88.2 | > 100 | > 100 | > 100 | 2.24 | > 100 | > 100
